According to PubChem BioAssay (NCI):
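Grown in 96-well plates, cells were treated for 48 hours with each compound at five concentrations. Insufficient inhibition: endpoint recorded as highest concentration tested. At the GI50, growth is halved. The concentration for full growth arrest is given as TGI.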

Key:
Assay in all cases: DTP human tumour cell line panel, 48 h
[1] = tested on: HL-60(TB) leukemia
[2] = tested on: RXF 393 renal
[3] = tested on: SNB-19 CNS
[4] = tested on: SN12C renal
[5] = tested on: SK-MEL-5 melanoma
[6] = tested on: OVCAR-8 ovarian
[7] = tested on: SW-620 colon
[8] = tested on: 786-0 renal
[9] = tested on: HCC-2998 colon
[10] = tested on: HOP-92 NSCLC
[11] = tested on: KM12 colon

SMILES | TGI [1] [µM] | TGI [2] [µM] | TGI [3] [µM] | TGI [4] [µM] | TGI [5] [µM] | TGI [6] [µM] | TGI [7] [µM] | TGI [8] [µM] | TGI [9] [µM] | TGI [10] [µM] | TGI [11] [µM] | GI50 [1] [µM] | GI50 [7] [µM]
CC1=NN(C(=O)c2ccccc2O)C(=O)/C1=C/c1ccccc1O | 3.62 | 0.924 | > 100 | 33.7 | 14.2 | 64.4 | > 100 | 44.4 | 55.6 | 28.5 | > 100 |  | 
Cc1ccc(Nc2nc(N)nc3c2ncn3C2OC(CO)C(O)C2O)cc1 (stereo not given) | > 100 | > 100 | > 100 | > 100 | > 100 | > 100 | > 100 | > 100 | > 100 | > 100 | > 100 |  | 
CC(=O)NC1C(O)C(O)C(CO)OC1n1ncc(=O)[nH]c1=O (stereo not given) | > 100 | > 100 | > 100 | > 100 | > 100 | > 100 | > 100 | > 100 | > 100 | > 100 | > 100 |  | 
O=c1[nH]c(=S)[nH]n1C(=S)n1[nH]c(=S)[nH]c1=O | > 100 | > 100 | > 100 | > 100 | > 100 | > 100 | > 100 | > 100 | > 100 | > 100 | > 100 |  | 
O=C1c2c(ccc3c2CCC3)CC12Cc1cc3c(cc1C2)CCC3 | > 100 | > 100 | > 100 | > 100 | > 100 | > 100 | > 100 | > 100 | > 100 | > 100 | > 100 |  | 
O=C1C(=O)c2ccccc2C(O)=C1CN(CCCl)CCCl | > 100 | > 100 | > 100 | > 100 | > 100 | > 100 | > 100 | > 100 | > 100 | > 100 | > 100 |  | 
CN(C)CCCCN1c2ccccc2Sc2cc(N=[N+]=[N-])ccc21 | 3.94 | 10.6 | 19.9 | 12.1 | 3.18 | 3.38 | 3.56 | 3.08 | 3.37 | 10.5 | 3.17 |  | 
COC1=C(N2CC2)C(=O)c2nc3n(c2C1=O)CCC3 | 0.595 | 0.261 | 2.92 | 2.95 | 2.56 | 4.7 | 2.19 | 1.03 | 2.44 | 7.74 | 3.11 |  | 
COC(=O)C1=Cc2cc(OC)c(O)cc2[C@@H](c2ccc(O)c(OC)c2)[C@@H]1C(=O)OC | > 100 | > 100 | > 100 | > 100 | > 100 | > 100 | > 100 | > 100 | > 100 | > 100 | > 100 |  | 
CC(=O)OCC1OC(N2C(C)=C(C(C)=O)C(c3ccco3)C(C#N)=C2S)C(OC(C)=O)C(OC(C)=O)C1OC(C)=O (stereo not given) | > 100 | > 100 | > 100 | > 100 | > 100 | > 100 | > 100 | > 100 | > 100 | > 100 | > 100 |  | 
[O-][n+]1onc(-c2ccccc2)c1CN1CCOCC1 | > 100 | > 100 | > 100 | > 100 | > 100 | > 100 | > 100 | > 100 | > 100 | > 100 | > 100 |  | 
CCCCCC(CO)C(O)(C(F)(F)F)C(F)(F)F (stereo not given) | > 10 | > 10 | > 10 | > 10 | > 10 | > 10 | > 10 | > 10 | > 10 | > 10 | > 10 |  | 
Nc1cn(Cc2ccccc2)c2nc(/C=C3/C=CC=CC3=O)c(O)n12 | > 100 | > 100 | > 100 | > 100 | > 100 | > 100 | > 100 | > 100 | > 100 | > 100 | > 100 |  | 
CCCCC(=O)NC1(c2cc3ccccc3s2)CCCCC1 | 76.5 | > 100 | > 100 | > 100 | > 100 | > 100 | > 100 | > 100 | > 100 | > 100 | > 100 |  | 
CCOC(=O)/C(C#N)=C1\c2c([nH]c(=S)[nH]c2=O)Oc2ccc3ccccc3c21 | 4.56 | > 100 | 58.5 | > 100 | 41.4 | > 100 | 12.2 | > 100 | > 100 | > 100 | > 100 |  | 
CCCCCCCCCCCCC(O)C1CCC(C(O)CCCCCCC(O)CCCCCCCC2=CC(C)OC2=O)O1 (stereo not given) | 62.8 | 83 | > 100 | 83.1 | 22.2 | > 100 | > 100 | > 100 | 82.5 | 72.1 | > 100 | 0.852 | 45.8
O=[N+]([O-])c1ccc2[nH]ncc2c1Cl | > 100 | > 100 | > 100 | > 100 | 27 | > 100 | > 100 | > 100 | > 100 | > 100 | > 100 |  | 
COc1ccc(-c2c(CN3CCOCC3)sc3nc4ccccc4n23)cc1 | > 73.2 | > 47.5 | > 57.1 | > 100 | 98.8 | > 100 | > 100 | > 76.8 | 99.2 | > 100 | > 100 |  | 
